# Patent US10703760B2, “Morphic forms of marizomib and uses thereof” (Celgene International II Sàrl, priority 2016, dated 2020)
# Experiments:
# Assay type in all cases: physicochemical
# [1] = XRPD after storage for four years at 2-8° C.
# Excerpt: Without wishing to be bound by theory, the results of FIGS. 5 and 6 are further supported by FIG. 7. […] (710).
# [2] = Cocrystal screen of marizomib
# [3] = Variable temperature XRPD; details: 25° C. to 160° C.; listed as morphic Form I
# Method: Samples run under non-ambient conditions were mounted on a silicon wafer with heat-conducting compound. The sample was then heated to the appropriate temperature at 20° C./min and subsequently held isothermally for 1 minute before data collection was initiated.
# [4] = Polymorph screen of marizomib Sample 4 (evaporation, cooling, solvent/antisolvent, slurry, grinding, heat stress, amorphous attempts)
# Method: For slow evaporation (SE), solutions containing marizomib Sample 4 in selected solvents were allowed to evaporate at ambient temperature from vials covered with perforated aluminum foil. For fast evaporation (FE), solutions containing marizomib Sample 4 in selected solvents were allowed to evaporate at ambient temperature from open vials. The results are given below in Table-10. For flash evaporation, […] of disordered marizomib Sample 4 were added dropwise to pre-warmed glass vials, allowing the solvent to flash evaporate immediate upon contact. Resulting solids were collected for analysis. The corresponding figure numbers are given in the right hand column.
# For crash cooling (CC), concentrated solutions of marizomib Sample 4 were prepared at elevated temperature and filtered through pre-warmed 0.2-μm nylon filters into a clean vial pre-chilled in a dry ice/acetone bath. For fast cooling (FC) and slow cooling (SC), solutions containing marizomib Sample 4 in selected solvents at elevated temperatures in sealed vials. Solutions were then filtered into clean vials with 0.2-μm nylon filters and removed from the heating plate and left at ambient conditions (FC) or allowed to cool to specified temperature on the heating plate (SC). The results are given below in Table-11. As set forth below, the ratio of solvent mixtures are given by volume. Temperature and time are approximate. […]
# [5] = Dynamic vapor sorption (DVS) of Sample 4
# Excerpt: Prior to any testing, Sample 4 was characterized by XRPD, TGA, DSC, 1HNMR, and DVS. The results are given below in Table-8. The Corresponding figure numbers are given in the right hand column.
compound,measurement,setting,value
C[C@@]12OC(=O)[C@]1([C@@H](O)[C@@H]1C=CCCC1)NC(=O)[C@@H]2CCCl [marizomib],XRPD spectra initially versus after storage,[1],substantially identical
same,Cocrystal formation,"[2]; about 117 experiments, 46 coformers/counterions",cocrystal formation did not occur
same,XRPD Results,"[2]; coformer (2-hydroxypropyl)-β-cyclodextrin (1:1), MeOH/acetone, slurry 50° C. 2 days, supernatant decanted, SE, RT",MRZ
same,XRPD Results,"[2]; coformer (2-hydroxypropyl)-β-cyclodextrin (2:1), H2O/ACN, slurry 50° C. 2 days, slurry RT 6 days, SE, RT",MRZ
same,XRPD Results,"[2]; coformer Acetic acid (1:2), acetone, stir, RT, 5 days, cool 2-8° C., 3 days, SE, RT",MRZ
same,XRPD Results,"[2]; coformer Acetic acid (large excess), slurry, RT",MRZ
same,XRPD Results,"[2]; coformer Adenine (1:1), EtOH, slurry, RT, 5 days",MRZ
same,XRPD Results,"[2]; coformer Benzoic acid (1:5), MEK:MIBK (20:80), slurry, RT, 7 days",MRZ
same,XRPD Results,"[2]; coformer Benzoic acid (2:1), EtOAc, SE, RT",MRZ
same,XRPD Results,"[2]; coformer Caffeine (1:3), DMF:anisole (25:75), slurry, RT, 6 days",Caffeine
same,XRPD Results,"[2]; coformer DL-malic acid (1:3), dioxane, slurry 60° C. O/N, stir RT 1 day, FE, RT",MRZ
same,XRPD Results,"[2]; coformer Gentisic acid (1:1), t-BuOH, slurry, 50° C., 2 days",MRZ
same,XRPD Results,"[2]; coformer Gentisic acid (1:5), MEK:IPA (20:80), slurry, RT, 6 days",MRZ
same,XRPD Results,"[2]; coformer Gentisic acid (2:1), ACN, FC, 60° C. to RT",MRZ
same,XRPD Results,"[2]; coformer Glutaric acid (1:3), EtOH, slurry, RT, 6 days",MRZ
same,XRPD Results,"[2]; coformer Glycolic acid (1:2), acetone, SE, RT",MRZ
same,XRPD Results,"[2]; coformer Hydantoin (1:1), 2:1 dioxane:H2O, slurry, RT",MRZ
same,XRPD Results,"[2]; coformer Hydantoin (1:3), H2O/ACN, slurry 60° C. overnight, stir RT 1 day",MRZ
same,XRPD Results,"[2]; coformer L-Serine (1:1), H2O/THF, stir RT 3 days, SE, RT",MRZ
same,XRPD Results,"[2]; coformer L-Serine (1:3), H2O/MeOAc, slurry 60° C. O/N, stir RT 1 day, FE, RT",MRZ
same,XRPD Results,"[2]; coformer L-alanine (1:1), MeOH, slurry 60° C. O/N, slurry RT 1 day",MRZ
same,XRPD Results,"[2]; coformer L-arginine (1:1), HFIPA/dioxane, stir, RT, ~25 minutes",MRZ
same,XRPD Results,"[2]; coformer L-ascorbic acid (1:1), IPA/MeOH at 50° C., FC to RT",MRZ
same,XRPD Results,"[2]; coformer L-cysteine (1:1), grind ~10 minutes, EtOH/dioxane (50/50), temperature cycle RT and 50° C.",MRZ
same,XRPD Results,"[2]; coformer L-lysine (1:1), HFIPA/THF, stir, RT, ~35 minutes",MRZ
same,XRPD Results,"[2]; coformer L-proline (sat'd in IPA at 50° C.), added to MRZ at 50° C., temp cycle (50° C.-RT)",MRZ
same,XRPD Results,"[2]; coformer L-proline sat'd in H2O/MeOH 50/50 v/v, slurry 50° C. 2 days, slurry RT 3 days",L-proline
same,XRPD Results,"[2]; coformer Maleic acid (1:1), nitromethane, SC, 50° C. to RT",MRZ
same,XRPD Results,"[2]; coformer Maleic acid (1:3), 1-PrOH, slurry, RT, 6 days",MRZ
same,XRPD Results,"[2]; coformer Nicotinamide (1:1), ACN, FC, 70° C. to RT",MRZ
same,XRPD Results,"[2]; coformer Orotic acid (2:1), nitromethane, slurry, 50° C., 6 days",MRZ
same,XRPD Results,"[2]; coformer Oxalic acid (1:2), EtOH/MEK, stir, RT, 7 days",MRZ
same,XRPD Results,"[2]; coformer Saccharin (1:1), IPA, FC, 70° C. to RT",MRZ
same,XRPD Results,"[2]; coformer Salicylic acid (1:1), EtOAc:toluene (50:50), FC, 75° C. to RT",MRZ
same,XRPD Results,"[2]; coformer Salicylic acid (1:3), EtOH/MIBK, stir, RT",MRZ
same,XRPD Results,"[2]; coformer Succinic acid (1:2), MeOH/acetone, stir, RT, 5 days",MRZ
same,XRPD Results,"[2]; coformer Thymine (1:1), MeOH/EtOAc, slurry 50° C. 2 days, slurry RT 6 days",Thymine
same,XRPD Results,"[2]; coformer Urea (2:1), EtOAc, FC, 50° C. to RT",MRZ
same,Morphic form on heating (variable temperature XRPD),[3],stable even at elevated temperatures
same,Morphic form observed after exposure to solvents and anti-solvents,[4],only morphic Form I was observed
"C[C@@]12OC(=O)[C@]1([C@@H](O)[C@@H]1C=CCCC1)NC(=O)[C@@H]2CCCl [Sample 4, marizomib]",DVS weight change,[5]; 5-75% RH,+0.039 wt % (5-75% RH)
same,DVS weight change,[5]; 75-95% RH,+1.158 wt % (75-95% RH)
same,DVS weight change,[5]; 95-5% RH,−1.276 wt % (95-5% RH)
same,DVS weight change,[5]; at 5% RH,−0.035 wt % (at 5% RH)
